Source: ChEMBL document CHEMBL4402571, “Methylation of Daptomycin Leading to the Discovery of Kynomycin, a Cyclic Lipodepsipeptide Active against Resistant Pathogens” (J Med Chem, 2020)
In brackets after ≈: the same amount, converted by molar mass. Activity calls are given as the source filed them. The calls are words filed in the database; no cut-off is given here.

Key:
[1] = system: Enterococcus faecalis; assay: Antibacterial activity against Enterococcus faecalis ATCC 29212 by broth microdilution method; format: functional
[2] = system: Staphylococcus aureus; assay: Antibacterial activity against Staphylococcus aureus ATCC 29213 by broth microdilution method; format: functional
[3] = system: Enterococcus faecium; assay: Antibacterial activity against Enterococcus faecium ET60 by broth microdilution method; format: functional
[4] = system: Staphylococcus aureus; assay: Antibacterial activity against methicillin-resistant Staphylococcus aureus SA88 by broth microdilution method; format: functional
[5] = system: Staphylococcus aureus; assay: Antibacterial activity against methicillin-resistant Staphylococcus aureus SA11 by broth microdilution method; format: functional
[6] = system: Staphylococcus aureus; assay: Antibacterial activity against methicillin-resistant Staphylococcus aureus SA14 by broth microdilution method; format: functional
[7] = system: Staphylococcus aureus; assay: Antibacterial activity against methicillin-resistant Staphylococcus aureus SA86 by broth microdilution method; format: functional
[8] = system: Enterococcus faecium; assay: Antibacterial activity against Enterococcus faecium ET6 by broth microdilution method; format: functional
[9] = system: Staphylococcus aureus; assay: Bactericidal activity against Staphylococcus aureus ATCC 29213 assessed as reduction in bacterial load at 4 to 8 ug/ml preincubated for up to 24 hrs followed by subculturing on LB agar plate by time-kill assay; format: functional, organism-based
[10] = system: Enterococcus faecalis; assay: Antibacterial activity against daptomycin-resistant Enterococcus faecalis T1027 infected in NIH mouse model of neutropenic thigh infection assessed reduction in bacterial level in thigh at 50 mg/kg, sc administered at 2 and 12 hrs post infection and measured at 48 to 60 hrs post-infection; format: functional, organism-based
[11] = system: Staphylococcus aureus; assay: Antibacterial activity against Staphylococcus aureus USA300 infected in Balb/c mouse model of sepsis assessed as bacterial eradication in kidney at 1.25 mg/kg, sc administered twice daily for 3 days starting from 1 hr post-infection followed by subculturing on LB agar plate and measured after overnight incubation; format: functional, organism-based
[12] = system: Staphylococcus aureus; assay: Antibacterial activity against daptomycin-resistant Staphylococcus aureus SA11 infected in Galleria mellonella larvae assessed as increase in larvae survival at 50 mg/kg measured up to 72 hrs post-infection; format: functional, organism-based
[13] = system: Enterococcus faecalis; assay: Antibacterial activity against Enterococcus faecalis ZS129 infected in Galleria mellonella larvae assessed as increase in larvae survival at 50 mg/kg measured up to 72 hrs post-infection; format: functional, organism-based
[14] = system: Staphylococcus aureus; assay: Induction of cell membrane integrity disruption in Staphylococcus aureus ATCC 29213 at 8 ug/ml measured after 0.5 to 2 hrs by SYTOX green staining based fluorescence assay; format: organism-based
[15] = system: Enterococcus faecalis; assay: Bactericidal activity against Enterococcus faecalis ATCC 29212 assessed as reduction in bacterial load at 16 ug/ml preincubated for up to 24 hrs followed by subculturing on LB agar plate by time-kill assay; format: functional, organism-based
[16] = system: Enterococcus faecalis; assay: Induction of cell membrane integrity disruption in Enterococcus faecalis ATCC 29212 at 16 ug/ml measured after 0.5 to 2 hrs by SYTOX green staining based fluorescence assay; format: organism-based
[17] = system: Enterococcus faecalis; assay: Antibacterial activity against Enterococcus faecalis ATCC 29212 at sub-MIC after 7 serial passages by broth microdilution method; format: functional, organism-based
[18] = system: Enterococcus faecalis; assay: Antibacterial activity against Enterococcus faecalis T1027 infected in Galleria mellonella larvae assessed as increase in larvae survival at 50 mg/kg measured 96 hrs post-infection; format: functional, organism-based
[19] = system: Enterococcus faecalis; assay: Induction of cell membrane integrity disruption in Enterococcus faecalis ATCC 29212 at 16 ug/ml measured after 1 hr by SYTOX green staining based confocal laser scanning microscopic analysis; format: organism-based
[20] = system: Staphylococcus aureus; assay: Antibacterial activity against daptomycin-resistant Staphylococcus aureus SA11 infected in NIH mouse model of neutropenic thigh infection assessed reduction in bacterial level in thigh at 50 mg/kg, sc administered at 2 and 12 hrs post infection and measured at 48 to 60 hrs post-infection; format: functional, organism-based
[21] = system: Staphylococcus aureus; assay: Antibacterial activity against methicillin-resistant Staphylococcus aureus ATCC 43300 infected in Galleria mellonella larvae assessed as increase in larvae survival at 50 mg/kg measured up to 72 hrs post-infection; format: functional, organism-based
[22] = system: HEK293; assay: Cytotoxicity against HEK293 cells assessed as reduction in cell viability at 40 mg/ml measured after 24 hrs by MTT assay; format: cell-based; details: human, hek293, 24 h
[23] = Aqueous solubility of the compound in 0.9% NaCl at >= 100 measured after 15 mins; format: physicochemical; details: buffer, 0.25 h
[24] = system: HEK293; assay: Cytotoxicity against HEK293 cells assessed as reduction in cell viability at 80 mg/ml measured after 24 hrs by MTT assay; format: cell-based; details: human, hek293, 24 h
[25] = system: Erythrocyte; assay: Hemolytic activity against rat RBC at 320 ug/ml measured after 1 hr; format: ADME, cell-based
[26] = system: Enterococcus faecalis; assay: Antibacterial activity against Enterococcus faecalis T1027 by broth microdilution method; format: functional
[27] = system: Staphylococcus aureus; assay: Antibacterial activity against Staphylococcus aureus USA300 infected in Balb/c mouse model of sepsis assessed as mouse survival at 0.925 mg/kg, sc administered twice daily for 5 days starting from 1 hr post-infection relative to control; format: functional
[28] = system: Staphylococcus aureus; assay: Antibacterial activity against methicillin-resistant Staphylococcus aureus ATCC 33591 infected in iv dosed CD-1 ICR mouse administered as single dose measured after 7 days; format: functional; details: ATCC 33591, iv, 168 h
[29] = system: Enterococcus faecalis; assay: Antibacterial activity against Enterococcus faecalis ATCC 29212 assessed as mutation prevention concentration measured after 72 hrs; format: functional; details: ATCC 29212, 72 h
[30] = system: Staphylococcus aureus; assay: Bactericidal activity against Staphylococcus aureus ATCC 29213 incubated prior to replating on agar plate measured after overnight incubation; format: functional
[31] = system: Staphylococcus aureus; assay: Antibacterial activity against Staphylococcus aureus ATCC 29213 assessed as ratio of MIC after and before 7 serial passages at sub-MIC by broth microdilution method; format: functional
[32] = system: Staphylococcus aureus; assay: Antibacterial activity against Staphylococcus aureus ATCC 29213 assessed as mutation prevention concentration measured after 72 hrs; format: functional; details: ATCC 29213, 72 h
[33] = system: Enterococcus faecalis; assay: Bactericidal activity against Enterococcus faecalis ATCC 29212 incubated prior to replating on agar plate measured after overnight incubation; format: functional
[34] = system: Staphylococcus aureus; assay: Antibacterial activity against Staphylococcus aureus ATCC 29213 assessed as ratio of MIC after and before 1 serial passage at sub-MIC by broth microdilution method; format: functional
[35] = system: Staphylococcus aureus; assay: Antibacterial activity against methicillin-resistant Staphylococcus aureus 0114 infected in iv dosed CD-1 ICR mouse administered as single dose measured after 7 days; format: functional; details: Staphylococcus aureus, 0114, iv, 168 h
[36] = system: Enterococcus faecalis; assay: Antibacterial activity against Streptococcus faecalis by broth microdilution method; format: functional
[37] = system: Enterococcus faecalis; assay: Antibacterial activity against Enterococcus faecalis ZS129 by broth microdilution method; format: functional

## CCCCCCCCCC(=O)N[C@@H](Cc1cn(C)c2ccccc12)C(=O)N[C@@H](CC(N)=O)C(=O)N[C@@H](CC(=O)O)C(=O)N[C@@H]1C(=O)NCC(=O)N[C@@H](CCCN)C(=O)N[C@@H](CC(=O)O)C(=O)N[C@H](C)C(=O)N[C@@H](CC(=O)O)C(=O)NCC(=O)N[C@H](CO)C(=O)N[C@@H]([C@H](C)CC(=O)O)C(=O)N[C@@H](CC(=O)c2ccccc2N)C(=O)O[C@@H]1C
[1]
  MIC: 2 µg/mL (≈ 1.22 µM)
[2]
  MIC: 0.5 µg/mL (≈ 0.306 µM)
[3]
  MIC: 1 µg/mL (≈ 0.612 µM)
[4]
  MIC: 0.25 µg/mL (≈ 0.153 µM)
[5]
  MIC: 2 µg/mL (≈ 1.22 µM)
[6]
  MIC: 0.5 µg/mL (≈ 0.306 µM)
[7]
  MIC: 0.5 µg/mL (≈ 0.306 µM)
[8]
  MIC: 1 µg/mL (≈ 0.612 µM)

## CCCCCCCCCC(=O)N[C@@H](Cc1c[nH]c2ccccc12)C(=O)N[C@@H](CC(N)=O)C(=O)N[C@@H](CC(=O)O)C(=O)N[C@@H]1C(=O)NCC(=O)N[C@@H](CCCN)C(=O)N[C@H](CC(=O)O)C(=O)N[C@H](C)C(=O)N[C@@H](CC(=O)O)C(=O)NCC(=O)N[C@H](CO)C(=O)N[C@@H]([C@@H](C)CC(=O)O)C(=O)N[C@@H](CC(=O)c2ccccc2N)C(=O)O[C@@H]1C
[9]
  Activity: Active
[10]
  Activity: Active
[11]
  Activity: inactive
[12]
  Activity: Active
[13]
  Activity: Active
[14]
  Activity: Active
[15]
  Activity: Active
[16]
  Activity: Active
[17]
  Activity: inactive
[18]
  Activity: Active
[19]
  Activity: Active
[20]
  Activity: Active
[21]
  Activity: Active

## CCCCCCCCCC(=O)N[C@@H](Cc1c[nH]c2ccccc12)C(=O)N[C@H](CC(N)=O)C(=O)N[C@@H](CC(=O)O)C(=O)N[C@@H]1C(=O)NCC(=O)N[C@@H](CCCN)C(=O)N[C@@H](CC(=O)O)C(=O)N[C@H](C)C(=O)N[C@@H](CC(=O)O)C(=O)NCC(=O)N[C@H](CO)C(=O)N[C@@H]([C@H](C)CC(=O)O)C(=O)N[C@@H](CC(=O)c2ccccc2NC)C(=O)O[C@@H]1C
[22]
  Activity: Non-Toxic
[23]
  solubility: Soluble
[24]
  Activity: Toxic
[25]
  Activity: Non-Toxic

## CCCCCCCCCC(=O)N[C@@H](Cc1c[nH]c2ccccc12)C(=O)N[C@H](CC(N)=O)C(=O)N[C@@H](CC(=O)O)C(=O)N[C@@H]1C(=O)NCC(=O)N[C@@H](CCCN)C(=O)N[C@@H](CC(=O)O)C(=O)N[C@H](C)C(=O)N[C@@H](CC(=O)O)C(=O)NCC(=O)N[C@H](CO)C(=O)N[C@@H]([C@@H](C)CC(=O)O)C(=O)N[C@@H](CC(=O)c2ccccc2N)C(=O)O[C@@H]1C
[1]
  MIC: 4 µg/mL (≈ 2.47 µM)
[26]
  MIC: 16 µg/mL (≈ 9.87 µM)
[27]
  survival at 0.925 mg/kg: 50%
[2]
  MIC: 0.5 µg/mL (≈ 0.309 µM)
[28]
  ED50: 2.14 mg/kg
[29]
  MPC: 32 µg/mL
[30]
  MBC: 0.25 µg/mL (≈ 0.154 µM)
[31]
  Ratio: 8
[32]
  MPC: 16 µg/mL
[3]
  MIC: 2 µg/mL (≈ 1.23 µM)
[4]
  MIC: 0.5 µg/mL (≈ 0.309 µM)
[33]
  MBC: 16 µg/mL (≈ 9.87 µM)
[34]
  Ratio: 2
[35]
  ED50: 2.19 mg/kg
[36]
  MIC: 0.5 µg/mL (≈ 0.309 µM)
[5]
  MIC: 2 µg/mL (≈ 1.23 µM)
[6]
  MIC: 0.5 µg/mL (≈ 0.309 µM)
[7]
  MIC: 0.5 µg/mL (≈ 0.309 µM)
[8]
  MIC: 4 µg/mL (≈ 2.47 µM)
[37]
  MIC: 0.5 µg/mL (≈ 0.309 µM)
